{"source": "patent US6750330B1", "about": "“Lyophilized tubulins” (priority 1998, dated 2004)", "test_system": "MAP-rich tubulin", "experiment": "96-well plate polymerization assay of tubulin ligands with lyophilized active tubulin", "type": "biochemical, bovine", "conditions": "for rate of polymerization with increasing concentration: 20 minutes at 24° C., 100 μg/well MAP-rich tubulin; for effect on microtubule polymerization (O.D. 340 nm): 60 minutes at 24° C., 96-well plate", "description": "The dried powder was resuspended to 1 mg/ml protein in the G-PEM buffer that contained different tubulin ligands. The reactions were incubated at 24° C. and the optical density was determined between T=O and T=60 min. Wells A1, A2—duplicate control reactions; wells B1, B2—Duplicate 3 uM nocodazole reactions, and wells C1, C2—Duplicate 3 uM paclitaxel reactions. Other duplicate wells contained buffer with a random concentration of nocodazole between 0-30 uM.\nSimilar protocols were performed as in FIG. 9 legend except that paclitaxel was present at different concentrations and assays were performed in triplicate. Average nucleation (Onset) times, polymerization rates and maximum OD340 nm were compared to the control reactions (no drug) using CytoDYNAMIX Screen™ data analysis package (Cytoskeleton, Inc.).\nSimilar protocols were performed as in FIG. 9 legend except that nocodazole was present at different concentrations and assays were performed in triplicate. Average nucleation (Onset) times, polymerization rates and maximum OD340 nm were compared to the control reactions (no drug) using CytoDYNAMIX Screen™ data analysis package (Cytoskeleton, Inc.).\nNocodazole is similarly used as a negative control since it depolymerizes microtubules. Substances that may potentially have an effect on microtubule polymerization can be assayed by this method in which the optical density was measured at 340 nm over 60 minutes at a temperature sufficient to support polymerization (i.e., 15-45° C., preferably 24° C. for MAP-rich or 37° C. for pure tubulin).\nMAP-rich tubulin (100 μg/well) was lyophilized under the optimal conditions described in Example 1, in a 96-well plate. Ninety-six wells in a 96-well plate of lyophilized tubulin can be simultaneously reconstituted and their polymerization measured (See FIG. 8). […] In a similar manner, using an 8-channel hand held pipettor, various random nocodazole concentrations were tested for activity. In addition, controls were added to the assay. […] Nocodazole was similarly used as a negative control since it depolymerizes microtubules. The optical density was measured at 340 nm over 60 minutes at 24° C. as an indication of microtubule polymerization (See FIG. 9).\nPaclitaxel and nocodazole, anti-tumor agents, were assayed in G-PER buffer with lyophilized active tubulin.", "data": [{"compound": "COC(=O)Nc1nc2ccc(C(=O)c3cccs3)cc2[nH]1", "note": "[nocodazole]", "values": [{"measurement": "rate of polymerization with increasing concentration", "result": "decrease in the rate of polymerization"}, {"measurement": "effect on microtubule polymerization (O.D. 340 nm)", "result": "negative"}]}, {"compound": "CC(=O)O[C@H]1C(=O)[C@@]2(C)[C@H]([C@H](OC(=O)c3ccccc3)[C@]3(O)C[C@H](OC(=O)[C@H](O)[C@@H](NC(=O)c4ccccc4)c4ccccc4)C(C)=C1C3(C)C)[C@]1(OC(C)=O)CO[C@@H]1C[C@@H]2O", "note": "[paclitaxel]", "values": [{"measurement": "rate of polymerization with increasing concentration", "result": "increased rate of polymerization"}, {"measurement": "effect on microtubule polymerization (O.D. 340 nm)", "result": "enhancing"}]}]}
